Data reported in PMC10761119, “Phosphorylation-state dependent intraneuronal sorting of Aβ differentially impairs autophagy and the endo-lysosomal system” (Autophagy, 2023).

How the values were obtained:
[1] = test system: primary cortical neurons; test: Western immunoblot of Aβ aggregation during incubation with neurons; format: cell-based, mouse; conditions: Aβ 500 nM, 4 h; NuPAGE and western immunoblot with 82E1; compared to npAβ or p-Ser26Aβ
Experimental: Cells were collected by scraping and mechanically homogenized in hypotonic D buffer (10 mM Tris-HCl, pH 7.4, 10 mM NaCl, 0.1 mM EGTA, 25 mM glycerol 2-phosphate, 1 mM DTT) containing protease and phosphatase inhibitors by repeated suspension through a 23 G × 1” needle. Post-nuclear supernatant (PNS) was collected by centrifugation of the mechanically homogenized cellular material at 2,000 g for 5 min. The pellet was the nuclear material. […]
For different cellular fractions prepared as described earlier, the protein content was estimated using the standard Pierce™ BCA protein assay kit (ThermoFisher Scientific, 23225). […] Blots were developed either by enhanced chemiluminescence (ECL) or fluorescence imaging. […] Signals were detected with an ECL imager (Bio-Rad, Germany). For fluorescence detection, blots were imaged on a Li-COR imaging station (Li-COR Biosciences, Germany). […] Quantification of band signals was done using ImageJ – Gel processing module or Image Studio processing software (LiCOR Biosciences, Germany). All samples were analyzed in biological duplicates in two or three independent experiments as indicated in the respective figure legends. […]

[2] = test system: SH-SY5Y cells; test: Autophagic flux with tandem reporter GFP-LC3-RFP-LC3Δ; format: cell-based, human; conditions: Aβ 1 µM, 24 h; compared to control cells; n = 6, N = 3
Experimental: SH-SY5Y cells were transfected with either GFP-LC3-LC3Δ-RFP or mCherry-GFP-LC3B tandem constructs (0.5 μg/well +1 µl transfection reagent − 24 well plate) with Lipofectamine 2000 (Life Technologies, 11668019) in OptiMEM (Life Technologies, 11058021) in DMEM/F-12, FCS^− PS^− media. After 8 h, FCS^− PS^− media was changed to normal culture media, respectively. Transfection efficiency was around 50–60% in all analyzed coverslips.
SH-SY5Y cells seeded on D1, were treated with Aβ variants (1 μM) on D3 in DMEM/F-12 media without serum and antibiotics. Control treatment included treatment with equal volume of 10 mM NaOH solution used for preparing the Aβ stock solutions, in respective cell culture medium. […]
All images were processed and analyzed using Fiji ImageJ software. […] Distance from the plaque core (Figure 1B) was measured using the concentric circles plugin module. Fluorescence intensity of the green channel (Figure S3A-B), and the number of neurons positive for Aβ signals (Figure S3-D) were quantified using the processing module of Keyence software. […] Intensity of green and red channel for a particular ROI was calculated and ratios of the individual values were computed (Figure 6B and S7A). For computing the number of mCherry^+GFP^± vesicles or per cell (Figure 6D and S7B), cell outline was drawn manually and number of vesicles per cell (nucleus count – DAPI) was calculated. […]

Substance	SDS resistant aggregates formed during the incubation with neurons [1]	RFP:GFP ratio (autophagic flux) [2]
amyloid-β phosphorylated at serine residue 8 [p-Ser8Aβ]	forms more SDS resistant aggregates	
non-phosphorylated amyloid-β [npAβ, reference compound]		tended to increase
